Key:
Format in all cases: functional
Mus musculus [1] = test: Percentage glucose normalization relative to the ciglitazone effect at 50 mg/kg, which lower blood glucose levels to that of the lean littermates at the dose 0.5 mg/kg (in mice)
Mus musculus [2] = test: Percentage glucose normalization relative to the ciglitazone effect at 50 mg/kg, which lower blood glucose levels to that of the lean littermates at the dose 1 mg/kg (in mice)
Mus musculus [3] = test: Percentage glucose normalization relative to the ciglitazone effect at 50 mg/kg, which lower blood glucose levels to that of the lean littermates at the dose 5 mg/kg (in mice)
Mus musculus [4] = test: Percentage glucose normalization relative to the ciglitazone effect at 50 mg/kg, which lower blood glucose levels to that of the lean littermates at the dose 0.1 mg/kg (in mice)
Mus musculus [5] = test: Percentage glucose normalization relative to the ciglitazone effect at 50 mg/kg, which lower blood glucose levels to that of the lean littermates at the dose 0.025 mg/kg (in mice)
Mus musculus [6] = test: Percentage glucose normalization relative to the ciglitazone effect at 50 mg/kg, which lower blood glucose levels to that of the lean littermates at the dose 0.05 mg/kg (in mice)
Mus musculus [7] = test: Percentage glucose normalization relative to the ciglitazone effect at 50 mg/kg, which lower blood glucose levels to that of the lean littermates at the dose 0.2 mg/kg (in mice)
Mus musculus [8] = test: Percentage glucose normalization relative to the ciglitazone effect at 50 mg/kg, which lower blood glucose levels to that of the lean littermates at the dose 10 mg/kg (in mice)
Mus musculus [9] = test: Percentage glucose normalization relative to the ciglitazone effect at 50 mg/kg, which lower blood glucose levels to that of the lean littermates at the dose 25 mg/kg (in mice)

Compound	Glucose normalisation (Mus musculus [1]) [%]	Glucose normalisation (Mus musculus [2]) [%]	Glucose normalisation (Mus musculus [7]) [%]	further results
Cc1sc(-c2ccccc2)nc1Cc1cc2cc(CC3OC(=O)NC3=O)ccc2o1 (stereo unspecified)	0			
Cc1oc(-c2ccccc2)nc1CCOc1ccc(C2OC(=O)NC2=O)cc1 (stereo unspecified)		0		
Cc1oc(-c2ccccc2)nc1Cc1cc2cc(CC3OC(=O)NC3=O)ccc2o1 (stereo unspecified)			100	Glucose normalisation (Mus musculus [3]): 100%; Glucose normalisation (Mus musculus [4]): 92%; Glucose normalisation (Mus musculus [5]): 65%; Glucose normalisation (Mus musculus [6]): 77%
Cc1cccc(-c2nc(Cc3cc4cc(CC5OC(=O)NC5=O)ccc4o3)c(C)o2)c1 (stereo unspecified)	100			Glucose normalisation (Mus musculus [4]): 90%
Cc1oc(-c2ccccc2)nc1COc1ccc(CC2OC(=O)NC2=O)cc1 (stereo unspecified)				Glucose normalisation (Mus musculus [3]): 60%
Cc1oc(-c2ccc3ccccc3c2)nc1Cc1cc2cc(CC3OC(=O)NC3=O)ccc2o1 (stereo unspecified)		75	70	Glucose normalisation (Mus musculus [4]): 76%
Cc1oc(-c2ccco2)nc1CCOc1ccc(CC2OC(=O)NC2=O)cc1 (stereo unspecified)		14		Glucose normalisation (Mus musculus [3]): 24%
Cc1oc(-c2ccccc2)nc1CCC(=O)c1ccc(CC2OC(=O)NC2=O)cc1 (stereo unspecified)		13		Glucose normalisation (Mus musculus [3]): 75%
O=C1NC(=O)C(Cc2ccc(OCCc3oc(-c4ccccc4)nc3Cc3ccccc3)cc2)O1 (stereo unspecified)				Glucose normalisation (Mus musculus [8]): 40%
Cc1oc(-c2ccc3ccccc3c2)nc1CCOc1ccc(CC2OC(=O)NC2=O)cc1 (stereo unspecified)	100	98	46	
Cc1nc(-c2ccc3ccccc3c2)oc1CCOc1ccc(CC2OC(=O)NC2=O)cc1 (stereo unspecified)		0		Glucose normalisation (Mus musculus [3]): 10%
Cc1oc(C2CCCCC2)nc1Cc1cc2cc(CC3OC(=O)NC3=O)ccc2o1 (stereo unspecified)			91	Glucose normalisation (Mus musculus [4]): 64%
Cc1oc(-c2ccccc2)nc1CCOc1ccc(CC2OC(=O)NC2=O)cc1 (stereo unspecified)	28	100		
Cc1oc(C2CCCCC2)nc1CCOc1ccc(CC2OC(=O)NC2=O)cc1 (stereo unspecified)		61		
Cc1ccc(-c2nc(Cc3cc4cc(CC5OC(=O)NC5=O)ccc4o3)c(C)o2)cc1 (stereo unspecified)			100	Glucose normalisation (Mus musculus [4]): 40%
Cc1sc(-c2ccc3ccccc3c2)nc1CCOc1ccc(CC2OC(=O)NC2=O)cc1 (stereo unspecified)	0			
Cc1oc(-c2cc(C(F)(F)F)cc(C(F)(F)F)c2)nc1CCOc1ccc(CC2OC(=O)NC2=O)cc1 (stereo unspecified)	95		14	
O=C1NC(=O)C(Cc2ccc(Oc3ccc4oc(-c5ccccc5)nc4c3)cc2)O1 (stereo unspecified)				Glucose normalisation (Mus musculus [9]): 0%
COc1ccc(-c2nc(CCOc3ccc(CC4OC(=O)NC4=O)cc3)c(C)o2)cc1 (stereo unspecified)	53	80		

Reference: ChEMBL document CHEMBL1125685, “Benzyloxazolidine-2,4-diones as potent hypoglycemic agents” (1991)
